Laboratory results as given in US4748246A, “Pyrazolo(4,3-c)quinolines” (American Home Products Corporation, priority 1987, dated 1988).

Experiments:
[1] = test system: rat carrageenan paw edema; assay: rat carrageenan paw edema assay; format: in vivo, rat (male Sprague-Dawley); settings: for ED50: Rattus norvegicus, po, 3 h, read-out: Oral ED50 (95% C.L.); for % Inhibition of edema at 50 mg/kg (peroral): 1 hour prior to carrageenan, edema at 3 hours
Procedure: The compounds of the invention are tested in the rat carrageenan paw edema assay to determine their ability to inhibit the acute inflammatory response. This assay is carried out as follows: 140-180 gm male Sprague-Dawley rats, in groups of 6 animals, are injected subcutaneously in the right paw with 0.1 ml of 1% carrageenan at zero time. Mercury plethysmographic readings (ml) of the paw are made at zero time and 3 hours later. Test compounds are suspended or dissolved in 0.5% methylcellulose and given perorally 1 hour prior to carrageenan administration. The increase in paw volume (edema in ml.) produced by the carrageenan is measured. […] Unpaired Student's t-test is used to determine statistical significance.

[2] = test system: IL 1-induced release of neutral protease from rabbit articular chondrocytes; assay: inhibition of IL 1-induced release of neutral protease from rabbit articular chondrocytes (azocoll neutral protease assay); format: cell-based; settings: Oryctolagus cuniculus, Chondrocyte, human IL 1, 24 h, ± S.D., read-out: % Inhibition of Protease Secretion
Procedure: The ability of the compounds of the inventions to inhibit interleukin 1 is measured by the ability of the test compounds to inhibit the IL 1-induced release of neutral protease from rabbit articular chondrocytes.
This assay is carried out as follows:
Isolation of rabbit chondrocytes:
Male New Zealand White rabbits are anesthetized with 50 mg/kg of ketamine (i.m.) and killed by an intracardiac injection of 3 mls. of Nembutal. The knee joints of both legs are resected and the articular surfaces are exposed. Cartilage slices are obtained using a scalpel and are placed in a tissue culture dish (100 mm diameter) containing 10 mls of Hank's balanced salt solution (HBSS). The chondrocytes within the cartilage slices are then liberated by a series of enzyme digestions. The slices are incubated for 10 min. at 37° C. in 0.05% hyaluronidase (Sigma H-3884), rinsed with HBSS and incubated with 0.2% trypsin (Sigma T-2395) for 10 min. at 37° C. The slices are rinsed again and incubated for 10 mins. at 37° C. with 1.2% collagenase (Sigma C-5138). The slices are then rinsed again with HBSS and resuspended in 10 ml of Ham's F-12 medium containing 10% fetal bovine calf serum (FCS) and 0.2 % collagenase and incubated overnight at 37° C. in a 5% CO2 incubator. The next day, the medium containing the digested cartilage fragments and liberated chondrocytes is transferred to a 15 ml centrifuge tube and the cells are collected by centrifugation and washed twice and resuspended in Ham's F-12 medium. The cells are then plated into 24-well tissue culture plates (2×10^5 cells/well) and incubated at 37° C. until confluent (usually 4-6 days).
Stimulation of chondrocytes and drug treatment:
The confluent chondrocytes are rinsed twice with serum-free Ham's F-12 medium and 1 ml is added to each well. Fifty μl of purified human IL 1 (100 Units/ml; Genzyme Corporation, Boston, MA) is then added to stimulate these cells to secrete neutral protease. To measure drug effects, the cells are treated with test compound 10 min. prior to addition of IL 1. The standard screening dose is 10 μM. Twenty-four hours after IL 1 stimulation, supernatant fluids are collected and assayed for neutral protease activity.
The neutral protease activity of chondrocyte supernatant fluids is determined by their ability to degrade an insoluble protease substrate, azocoll (Sigma). Supernatants are treated for 10 min. at room temperature with 350 μM p-aminophenylmurcuric acetate to activate the latent enzyme. Three hundred μl of supernatant is then mixed with 500 μl of a 20 mg/ml suspension of azocoll and incubated at 37° C. for 18-24 hrs. with gentle rocking. The mixtures are centrifuged and the amount of substrate hydrolyzed is determined by measuring the absorbance of the supernatant at 520 nm.
Drug effects are calculated as the % change in enzyme activity (absorbance)by supernatants from drug-treated chondrocytes relative to enzyme activity of supernatants from vehicle-treated chondrocytes as follows:
% Inhibition of Protease Secretion= [formula]

SMILES | inhibition at 10 µM [2] | other results
CC(=O)Oc1ccccc1C(=O)O [Aspirin, reference compound] |  | ED50 [1]: 145 mg/kg
N#Cc1ccc(NCCc2nc3cc(Cl)ccc3c3nn(-c4ccccc4)cc23)cc1 [Example 1, 4-[[2-(7-Chloro-2-phenyl-2H-pyrazolo-[4,3-c]quinolin-4-yl)ethyl]amino]benzonitrile] | 88 ± 2% | % Inhibition of edema at 50 mg/kg (peroral) [1]: 38%; inhibition at 0.1 µM [2]: 60 ± 13%; inhibition at 1 µM [2]: 75 ± 5%
CCOC(=O)c1ccc(NCCc2nc3cc(Cl)ccc3c3nn(-c4ccccc4)cc23)cc1 [Example 2, 4-[[2-(7-Chloro-2-phenyl-2H-pyrazolo[4,3-c]quinolin-4-yl)ethyl]amino]benzoic acid ethyl ester] | 85 ± 3% | % Inhibition of edema at 50 mg/kg (peroral) [1]: 32%; inhibition at 0.1 µM [2]: 41 ± 10%; inhibition at 1 µM [2]: 70 ± 4%
Clc1ccc2c(c1)nc(CCNc1ncccn1)c1cn(-c3ccccc3)nc12 [Example 3, 7-Chloro-2-phenyl-N-(2-pyrimidinyl)-2H-pyrazolo[4,3-c]quinoline-4-ethanamine] | 79 ± 29% | inhibition at 1 µM [2]: 22%
Clc1ccc2c(c1)nc(CCNc1ccc3ccccc3n1)c1cn(-c3ccccc3)nc12 [Example 4, 7-Chloro-2-phenyl-N-(2-quinolinyl)-2H-pyrazolo[4,3-c]quinoline-4-ethanamine] | ≤ 20% | 
Fc1ccc(NCCc2nc3cc(Cl)ccc3c3nn(-c4ccccc4)cc23)cc1 [Example 5, 7-Chloro-N-(4-fluorophenyl)-2-phenyl-2H-pyrazolo[4,3-c]quinoline-4-ethanamine] | 14% | 
Clc1ccc2c(c1)nc(CCNc1cnccn1)c1cn(-c3ccccc3)nc12 [Example 6, 7-Chloro-2-phenyl-N-(2-pyrazinyl)-2H-pyrazolo-[4,3-c]quinoline-4-ethanamine, hemihydrate] | 60% | 
CCOC(=O)c1ccc(NCCc2nc3ccccc3c3nn(-c4ccccc4)cc23)cc1 [Example 7, 4-[[2-(2-phenyl-2H-pyrazolo[4,3-c]quinolin-4-yl)ethyl]amino]benzoic acid ethyl ester] | 83% | 
N#Cc1ccc(N(CCc2nc3cc(Cl)ccc3c3nn(-c4ccccc4)cc23)C(=O)Nc2ccccc2)cc1 [Example 8, N-[2-(7-chloro-2-phenyl-2H-pyrazolo[4,3-c]quinolin-4-yl)ethyl]-N-(4-cyanophenyl)-N'-phenylurea] | ≤ 20% | 
CCOC(=O)c1ccc(N(CCc2nc3cc(Cl)ccc3c3nn(-c4ccccc4)cc23)C(=O)Nc2ccccc2)cc1 [Example 9] | 49% | 
N#Cc1ccc(N(CCc2nc3cc(Cl)ccc3c3nn(-c4ccccc4)cc23)C(=O)Nc2ccc(Cl)cc2)cc1 [Example 10, N'-(4-Chlorophenyl)-N-[2-(7-chloro-2-phenyl-2H-pyrazolo[4,3-c]quinolin-4-yl)ethyl]-N-(4-cyanophenyl)urea] | 51% | 
CCOC(=O)c1ccc(N(CCc2nc3cc(Cl)ccc3c3nn(-c4ccccc4)cc23)C(=O)Nc2ccc(Cl)cc2)cc1 [Example 11, 4-[[[(4-chlorophenyl)amino]carbonyl][2-(7-chloro-2-phenyl-2H-pyrazolo[4,3-c]quinolin-4-yl)ethyl]amino]benzoic acid ethyl ester, hydrate] | 47% | 
CS(=O)(=O)c1ccc(NCCc2nc3cc(Cl)ccc3c3nn(-c4ccccc4)cc23)cc1 [Example 12, 7-Chloro-N-[(4-methylsulfonyl)phenyl]-2-phenyl-2H-pyrazolo[4,3-c]quinoline-4-ethanamine] | 41% | 
COc1ccc2c(c1)c(CC(=O)O)c(C)n2C(=O)c1ccc(Cl)cc1 [Indomethacin, reference compound] |  | ED50 [1]: 3.7 mg/kg
